Assay results as given in US9453031B2, “Chemical entities” (Fundación Centro Nacional de Investigaciones Oncológicas …, priority 2013, dated 2016).

What was measured:
ATR [1] = molecular target: T1, ATR (Homo sapiens (Human), UniProt Q13535); test: Cellular ATR inhibition, western blot of CHK1(S345) phosphorylation in hydroxyurea treated cells; format: cell-based; settings: HT29 cells
Protocol: In addition to the selective system described above, Example compounds presented here were screened for their ability to inhibit intracellular ATR using a western blot assay to detect phosphorylation of the ATR substrate CHK1(S345) in hydroxyurea treated cells. HT29 cells are plated at 500,000 cells per well in 6-well plates in RPMI media (Sigma R6504) supplemented with 10% foetal bovine serum (Sigma F7524), Penicillin/Streptomycin solution diluted 1:100 (Gibco 15070-063), and fungizone (Gibco, 15290-018), and allowed to adhere overnight at 37° C. in 5% CO2. Compounds are then added to the cell media from a final concentration of 10 μM in 3-fold serial dilutions and the cells are incubated at 37° C. in 5% CO2. After 15 min, hydroxyurea (Sigma H8627) is added to a final concentration of 2.5 mM. After 30 min of treatment with hydroxyurea, the cells are washed in PBS, lysed adding 50 μl of in protein lysis buffer (50 mM Tris pH 7.5, 150 mM NaCl, 1% IGEPAL CO-630 (Sigma, Ref. 542334-100G-A), Phospho Stop (Roche, Ref. 04906837001) and Complete Mini EDTA free (Roche, Ref. 11836170001)). The protein content of the lysates was determined by the modified method of Bradford (Sigma, Ref. B6916). The proteins were resolved by SDS-PAGE and transferred to nitrocellulose membrane (VWR International Eurolab, Ref. 732-4007). The membranes were incubated overnight at 4° C. with antibodies specific for total CHK1 (Santa Cruz Biotechnology, sc-8404), phosphoserine-345 CHK1 (Cell Signaling Technology #2348) they were washed and then incubated with IRDye800 conjugated anti-mouse (Pierce/Cultek, 35521) and Alexa Fluor 680 goat anti-rabbit IgG secondary antibodies (Invitrogen, A21076). The bands were visualized and quantified using an Odyssey infrared imaging system (Li-Cor Biosciences). The percentage of phosphorylated CHK1 vs total CHK1 in cells treated with hydroxyurea was taken as hundred percent of phosphorylation. The percentage of CHK1 phosphorylation is finally plotted against concentration for each compound and EC50s for intracellular ATR inhibition are calculated using ActivityBase from IDBS.

ATR [2] = molecular target: T1, ATR; test: Cellular ATR inhibition, pChk1 Ser345 after UV mimetic 4NQO; format: cell-based; settings: HT-29, read-out: UV mimetic inhibition of CHK1P at 10 μM (%); 10 μM compound, 3 μM 4NQO, HT29 cells
Text: (§1) ATM and ATR have distinct and overlapping responses to DNA damage. They must participate together and responses must be coordinated. Both pathways may be activated by ionizing radiation, and UV. As UV treatment is not practical for use in a high throughput cell assay, the UV mimetic 4NQO (Sigma) was chosen to activate the ATR and ATM DNA damage response pathway.
(§2) Chk1, a downstream protein kinase of ATR, has a key role in DNA damage checkpoint control, as well as Chk2 downstream of ATM. […] This assay measures a decrease in phosphorylation of Chk1 (Ser 345) and […] in HT29 colon adenocarcinoma cells following treatment with compound and the UV mimetic 4NQO. Compounds at 1 mM were created by diluting in 100% DMSO and then diluted 1:100 into assay media (RPMI, 10% FCS, 1% glutamine). Cells were plated in 6 well Costar plates at 5×10^5 cells per mL in 2 mL RPMI, 10% FCS, 1% glutamine and grown for 24 hrs. Following addition of compound the cells were incubated for 60 minutes. A final concentration of 3 μM 4NQO (prepared in 100% DMSO) was then added and the cells incubated for a further 60 mins. The cells are lysed and pChk1 Ser345 and pCHK2 Thr68 (Cell Signaling Technology, #2661) versus total CHK1 and CHK2 (Santa Cruz Biotechnology, se-5278) respectively has analysed by western blot as described above. The percentage of phosphorylated CHK1 versus total CHK1 or p-CHK2 versus total CHK2 in cells treated with 4NQO was taken as hundred percent of phosphorylation. The percentage of CHK1 or CHK2 phosphorylation is finally plotted against concentration for each compound and EC50s for intracellular ATR inhibition are calculated using ActivityBase from IDBS.

ATM = ATM (Homo sapiens (Human), UniProt Q13315); test: Cellular ATM inhibition, pCHK2 Thr68 after UV mimetic 4NQO; format: cell-based; settings: HT-29, read-out: UV mimetic inhibition of CHK2P at 10 μM (%); 10 μM compound, 3 μM 4NQO, HT29 cells
Text: as §1, §2

PI3K (p110α/p85α) = PI3K (p110α/p85α) (Homo sapiens (Human), UniProt P42336); test: PI3K alpha activity assay (ADP Hunter Plus); format: biochemical; settings: 50 μM ATP, 30 μM PIP2; read-out: PI3Kα IC50
Protocol: The kinase activity was measured by using the commercial ADP Hunter™ Plus assay available from DiscoveRx (#33-016), which is a homogeneous assay to measure the accumulation of ADP, a universal product of kinase activity. […] The reaction was carried out for 1 hour at 25° C. Reagent A and B were sequentially added to the wells and plates were incubated for 30 min at 37° C. Fluorescence counts were read in a Victor instrument (Perkin Elmer) with the recommended settings (544 and 580 nm as excitation and emission wavelengths, respectively).

mTOR = mTOR (Homo sapiens (Human), UniProt P42345); test: mTOR activity assay (LanthaScreen); format: biochemical
Protocol: The enzymatic mTOR activity was measured using a LanthaScreen™ kinase activity assay (Invitrogen). The enzyme was purchased from Invitrogen (PV4754), as well as the GFP-labelled substrate (4EBP1-GFP; PV4759) and the Tb-antip4EBP1(pThr46) antibody (PV4757). The assay was performed in 50 Mm HEPES buffer, pH 7.5, containing 1.5 mM MnCl2, 10 mM MgCl2, 1 mM EGTA, 2.5 mM DTT and 0.01% Tween-20. The concentration of the assay components were the following: 0.24 nM mTOR kinase, 400 nM 4EBP1-GFP, […] and serial dilutions of the compound (inhibitor) to be evaluated. After 1 h incubation at room temperature, 20 mM EDTA was used to stop the reaction and terbium-labelled antibody (4 nM) added to detect phosphorylated product. The antibody associates with the phosphorylated product resulting in an increased TR-FRET value. The TR-FRET value (a dimensionless number) was calculated as the ratio of the acceptor signal (GFP, emission at 520 nm) to the donor signal (terbium, emission at 495 nm).

DNA-PK = DNA-PK (Homo sapiens (Human), UniProt P78527); test: DNAPK activity assay (ADP Hunter Plus); format: biochemical; settings: 75 μM ATP
Protocol: The kinase activity was measured by using the commercial ADP Hunter™ Plus assay available from DiscoveRx (#90-0083), which is a homogeneous assay to measure the accumulation of ADP, a universal product of kinase activity. The enzyme, DNA-PK was purchased from Promega (#V5811). The assay was done following the manufacturer recommendations with slight modifications: Mainly the kinase buffer was replace by 15 mM HEPES, pH 7.5, 10 mM MgCl2, 20 mM NaCl, 1 mM EGTA, 0.1 mg/mL BGG, 0.02% Tween 20. The DNA-PK was assayed in a titration experiment to determine the optimal protein concentration for the inhibition assay. To calculate the […] of the Compounds, serial 1:3 dilutions of the compounds were added to the enzyme at a fixed concentration (2 U/μL). The enzyme was preincubated with the inhibitor and 200 μM DNA substrate and then ATP was added to a final 75 μM concentration. Reaction was carried out for 1 hour at 37° C. Reagent A and B were sequentially added to the wells and plates were incubated for 30 min at RT. Fluorescence counts were read in a EnVision instrument (Perkin Elmer) with the recommended settings (550 and 590 nm as excitation and emission wavelengths, respectively).

Sequence of PI3K (p110α/p85α) (P42336 whole entry): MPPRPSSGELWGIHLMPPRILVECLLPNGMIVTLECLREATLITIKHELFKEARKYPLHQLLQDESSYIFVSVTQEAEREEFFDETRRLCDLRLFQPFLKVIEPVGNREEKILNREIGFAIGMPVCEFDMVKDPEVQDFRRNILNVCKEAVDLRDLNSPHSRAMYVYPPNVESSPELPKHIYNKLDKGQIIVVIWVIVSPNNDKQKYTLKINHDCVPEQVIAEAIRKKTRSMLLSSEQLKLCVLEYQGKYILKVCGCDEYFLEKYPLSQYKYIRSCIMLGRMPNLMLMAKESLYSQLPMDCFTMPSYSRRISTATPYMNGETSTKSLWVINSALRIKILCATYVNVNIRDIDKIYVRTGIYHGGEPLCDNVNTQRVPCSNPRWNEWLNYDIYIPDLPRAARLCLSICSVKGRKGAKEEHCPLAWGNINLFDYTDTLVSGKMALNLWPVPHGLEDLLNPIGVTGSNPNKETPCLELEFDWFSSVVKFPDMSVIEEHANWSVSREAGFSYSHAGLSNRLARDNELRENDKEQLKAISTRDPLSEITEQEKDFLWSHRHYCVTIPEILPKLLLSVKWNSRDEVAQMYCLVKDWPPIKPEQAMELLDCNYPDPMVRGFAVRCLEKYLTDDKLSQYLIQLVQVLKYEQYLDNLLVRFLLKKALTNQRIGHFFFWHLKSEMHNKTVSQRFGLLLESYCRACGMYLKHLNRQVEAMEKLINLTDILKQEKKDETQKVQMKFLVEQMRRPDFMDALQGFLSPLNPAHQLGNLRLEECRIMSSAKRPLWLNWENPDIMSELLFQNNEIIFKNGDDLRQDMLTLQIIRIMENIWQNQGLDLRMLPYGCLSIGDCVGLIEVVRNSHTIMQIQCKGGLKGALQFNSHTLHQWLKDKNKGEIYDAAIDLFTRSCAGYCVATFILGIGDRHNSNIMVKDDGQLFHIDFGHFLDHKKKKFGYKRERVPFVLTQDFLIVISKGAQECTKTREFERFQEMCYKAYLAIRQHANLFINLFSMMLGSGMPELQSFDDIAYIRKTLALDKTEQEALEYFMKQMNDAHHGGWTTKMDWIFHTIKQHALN
Sequence of PI3K (p110α/p85α) (P27986 whole entry partner): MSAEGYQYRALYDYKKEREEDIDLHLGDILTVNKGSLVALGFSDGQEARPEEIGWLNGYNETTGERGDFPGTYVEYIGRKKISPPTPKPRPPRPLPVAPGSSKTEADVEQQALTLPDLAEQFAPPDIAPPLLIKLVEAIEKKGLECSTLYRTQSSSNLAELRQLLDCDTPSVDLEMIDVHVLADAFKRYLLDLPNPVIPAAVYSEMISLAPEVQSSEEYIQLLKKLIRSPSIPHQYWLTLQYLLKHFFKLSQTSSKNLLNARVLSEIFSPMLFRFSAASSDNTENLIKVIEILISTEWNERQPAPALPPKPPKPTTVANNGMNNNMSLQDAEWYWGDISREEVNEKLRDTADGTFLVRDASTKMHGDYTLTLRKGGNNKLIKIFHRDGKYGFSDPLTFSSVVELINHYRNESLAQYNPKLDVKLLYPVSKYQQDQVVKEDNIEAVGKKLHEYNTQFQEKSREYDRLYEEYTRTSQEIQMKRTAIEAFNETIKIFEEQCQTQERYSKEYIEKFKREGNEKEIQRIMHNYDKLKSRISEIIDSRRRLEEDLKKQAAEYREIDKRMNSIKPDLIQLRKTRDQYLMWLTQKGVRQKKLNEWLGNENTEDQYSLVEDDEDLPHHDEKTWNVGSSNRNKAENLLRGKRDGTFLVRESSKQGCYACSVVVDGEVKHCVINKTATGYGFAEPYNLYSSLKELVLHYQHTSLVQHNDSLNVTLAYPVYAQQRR
T1 sequence (Q13535 whole entry): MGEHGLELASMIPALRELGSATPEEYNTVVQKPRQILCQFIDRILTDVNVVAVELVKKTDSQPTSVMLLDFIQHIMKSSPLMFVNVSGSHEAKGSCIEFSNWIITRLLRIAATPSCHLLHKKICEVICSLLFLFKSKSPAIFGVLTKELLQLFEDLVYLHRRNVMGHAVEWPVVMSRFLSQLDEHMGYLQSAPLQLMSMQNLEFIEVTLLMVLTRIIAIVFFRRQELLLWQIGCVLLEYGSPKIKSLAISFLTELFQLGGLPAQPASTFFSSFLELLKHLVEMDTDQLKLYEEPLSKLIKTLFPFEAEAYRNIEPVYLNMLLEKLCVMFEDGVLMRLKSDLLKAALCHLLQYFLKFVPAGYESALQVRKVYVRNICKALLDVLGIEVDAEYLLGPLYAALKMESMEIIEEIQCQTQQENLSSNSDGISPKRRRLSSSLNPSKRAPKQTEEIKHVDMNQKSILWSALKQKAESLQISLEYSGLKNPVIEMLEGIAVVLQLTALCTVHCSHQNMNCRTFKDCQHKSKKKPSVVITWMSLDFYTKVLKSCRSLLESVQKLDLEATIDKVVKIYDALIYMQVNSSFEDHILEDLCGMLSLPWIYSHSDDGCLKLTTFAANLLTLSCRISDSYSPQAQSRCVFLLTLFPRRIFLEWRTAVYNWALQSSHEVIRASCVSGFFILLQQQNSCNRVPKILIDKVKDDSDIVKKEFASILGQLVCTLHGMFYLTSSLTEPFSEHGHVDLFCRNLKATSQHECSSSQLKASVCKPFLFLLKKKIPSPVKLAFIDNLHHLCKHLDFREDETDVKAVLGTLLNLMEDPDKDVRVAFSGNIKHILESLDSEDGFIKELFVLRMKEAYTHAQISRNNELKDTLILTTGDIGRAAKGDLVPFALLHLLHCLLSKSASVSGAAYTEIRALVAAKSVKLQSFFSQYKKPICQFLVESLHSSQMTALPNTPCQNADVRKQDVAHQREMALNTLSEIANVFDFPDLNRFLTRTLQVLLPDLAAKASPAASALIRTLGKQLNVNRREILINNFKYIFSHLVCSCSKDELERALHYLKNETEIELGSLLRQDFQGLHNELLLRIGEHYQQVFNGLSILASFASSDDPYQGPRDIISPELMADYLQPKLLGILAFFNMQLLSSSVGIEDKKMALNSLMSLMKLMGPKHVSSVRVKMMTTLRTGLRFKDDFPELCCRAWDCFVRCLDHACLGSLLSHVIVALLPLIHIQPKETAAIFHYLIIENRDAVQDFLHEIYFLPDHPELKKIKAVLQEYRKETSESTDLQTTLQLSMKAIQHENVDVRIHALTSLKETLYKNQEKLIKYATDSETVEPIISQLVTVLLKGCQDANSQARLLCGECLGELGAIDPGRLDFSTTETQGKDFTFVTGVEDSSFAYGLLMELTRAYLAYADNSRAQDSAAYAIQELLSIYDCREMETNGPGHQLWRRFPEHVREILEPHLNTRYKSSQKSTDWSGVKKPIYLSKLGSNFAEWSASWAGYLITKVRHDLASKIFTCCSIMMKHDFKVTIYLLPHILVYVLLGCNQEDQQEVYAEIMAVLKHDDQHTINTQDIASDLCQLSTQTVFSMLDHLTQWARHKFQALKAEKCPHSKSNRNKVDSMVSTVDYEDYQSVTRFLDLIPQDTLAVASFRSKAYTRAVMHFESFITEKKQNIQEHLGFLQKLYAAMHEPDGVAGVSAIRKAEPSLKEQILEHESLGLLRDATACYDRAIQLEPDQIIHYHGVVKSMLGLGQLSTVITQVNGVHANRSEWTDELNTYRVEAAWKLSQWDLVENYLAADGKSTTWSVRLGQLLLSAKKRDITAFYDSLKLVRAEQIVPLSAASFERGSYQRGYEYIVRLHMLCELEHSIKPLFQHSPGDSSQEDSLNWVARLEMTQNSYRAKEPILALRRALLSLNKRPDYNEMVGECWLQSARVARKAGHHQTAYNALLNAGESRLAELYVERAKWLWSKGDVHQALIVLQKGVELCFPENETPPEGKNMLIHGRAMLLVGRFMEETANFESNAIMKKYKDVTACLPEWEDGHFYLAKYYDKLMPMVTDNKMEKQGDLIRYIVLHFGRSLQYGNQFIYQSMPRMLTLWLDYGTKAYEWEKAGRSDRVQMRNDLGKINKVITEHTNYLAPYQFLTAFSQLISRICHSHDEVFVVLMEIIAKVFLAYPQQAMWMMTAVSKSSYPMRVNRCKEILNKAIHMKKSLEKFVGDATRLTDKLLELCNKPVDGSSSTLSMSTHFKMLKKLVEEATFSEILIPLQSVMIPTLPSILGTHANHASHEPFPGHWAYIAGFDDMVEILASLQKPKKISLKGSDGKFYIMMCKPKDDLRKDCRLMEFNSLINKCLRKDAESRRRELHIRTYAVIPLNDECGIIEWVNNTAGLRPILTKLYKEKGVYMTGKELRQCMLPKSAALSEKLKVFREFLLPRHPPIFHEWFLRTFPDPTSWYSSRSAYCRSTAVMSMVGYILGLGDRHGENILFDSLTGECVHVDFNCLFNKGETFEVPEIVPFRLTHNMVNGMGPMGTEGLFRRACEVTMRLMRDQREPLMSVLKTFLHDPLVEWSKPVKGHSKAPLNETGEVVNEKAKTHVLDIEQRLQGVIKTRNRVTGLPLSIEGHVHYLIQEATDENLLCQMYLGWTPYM

Compound	EC50 (ATR [1]; hydroxyurea 2.5 mM) [nM]	inhibition at 10 µM (ATR [2]) [%]	inhibition at 10 µM (ATM) [%]	IC50 (PI3K (p110α/p85α)) [nM]	IC50 (mTOR) [nM]	IC50 (DNA-PK) [nM]	EC50 (ATR [1]; hydroxyurea […]) [nM]
CS(=O)(=O)C1(c2nc(-c3cccc4[nH]ccc34)nc3c2OC[C@H]2COCCN32)CCOCC1 [Example 10]	100 to 1000	95	25	–	–	–	–
CC(C)(c1nc(-c2ccc(F)c3[nH]ccc23)nc2c1OC[C@@H]1COCCN21)S(C)(=O)=O [Example 102]	> 1000	–	–	50000	1820	100	–
CNc1nc2ccc(F)cc2n1-c1nc2c(c(C(C)(C)S(C)(=O)=O)n1)OC[C@@H]1COCCN21 [Example 83]	–	–	–	12200	2470	3110	100 to 1000
Cc1cc2c(-c3nc4c(c(C5(S(C)(=O)=O)CCC5)n3)OC[C@@H]3COCCN43)cccc2[nH]1 [Example 93]	100 to 1000	–	–	7440	117	10000	–
CS(=O)(=O)C1(c2nc(-c3cccc4[nH]ccc34)nc3c2OCC2COCCN32)CCOCC1 (centres unmarked) [Example 2]	< 100	98	0	–	–	–	–
CS(=O)(=O)C1(c2nc(-c3ccc(F)c4[nH]ccc34)nc3c2OC[C@@H]2COCCN32)CCOCC1 [Example 106]	> 1000	–	–	50000	10000	1160	–
CNc1nc2cc(Cl)ccc2n1-c1nc2c(c(C3(S(C)(=O)=O)CC3)n1)OC[C@@H]1COCCN21 [Example 86]	–	–	–	50000	3410	10000	> 1000
CC(C)(c1nc(-c2cc(F)cc3[nH]ccc23)nc2c1OC[C@@H]1COCCN21)S(C)(=O)=O [Example 71]	< 100	–	–	1080	99.3	10000	–
CC(C)(c1nc(-n2c(N3CCOCC3)nc3ccccc32)nc2c1OC[C@@H]1COCCN21)S(C)(=O)=O [Example 73]	–	–	–	50000	10000	10000	> 1000
CNc1nc2cc(F)ccc2n1-c1nc2c(c(C3(S(C)(=O)=O)CCC3)n1)OC[C@@H]1COCCN21 [Example 96]	–	–	–	50000	6080	10000	100 to 1000
CS(=O)(=O)C1(c2nc(-c3cc(C(F)(F)F)cc4[nH]ccc34)nc3c2OC[C@@H]2COCCN32)CCC1 [Example 112]	100 to 1000	–	–	19500	235	10000	–
C[C@@H]1CN(CC(=O)Nc2ccc3c(c2)Cc2cccc(-c4cc(=O)cc(N5CCOCC5)o4)c2S3)C[C@H](C)O1 [ATM inhibitor KU-60019, reference compound]	–	38	99	–	–	–	–
CNc1nc2ccccc2n1-c1nc2c(c(C3(S(C)(=O)=O)CCC3)n1)OC[C@@H]1COCCN21 [Example 92]	< 100	–	–	2750	1240	6150	–
CS(=O)(=O)C1(c2nc(-c3cc(F)cc4[nH]ccc34)nc3c2OC[C@@H]2COCCN32)CC1 [Example 74]	100 to 1000	–	–	2240	152	989	–
CS(=O)(=O)C1(c2nc(-c3ccnc4[nH]ccc34)nc3c2OC[C@@H]2COCCN32)CCOCC1 [Example 30]	100 to 1000	–	–	2500	4680	25000	–
COc1cc(-c2nc3c(c(C4(S(C)(=O)=O)CC4)n2)OC[C@@H]2COCCN32)c2cc[nH]c2c1 [Example 75]	100 to 1000	–	–	2520	93	1830	–
Cc1cc2c(-c3nc4c(c(C(C)(C)S(C)(=O)=O)n3)OC[C@@H]3COCCN43)cccc2[nH]1 [Example 103]	100 to 1000	–	–	3160	58	10000	–
CC(C)(c1nc(-c2c(F)ccc3[nH]ccc23)nc2c1OC[C@H]1COCCN21)S(C)(=O)=O [Example 26]	> 1000	–	–	2700	10000	10000	–
